Drawing on patent publication US11999718B2, “Pyrazole derivatives” (Aptabio Therapeutics Inc., priority 2021, dated 2024), this text covers inhibition for 15 compounds.

Usually inhibition stands for the change of the read-out against control, counted positive when it falls. Read a high inhibition as strong suppression.

Bounds are passed on as bounds.

The assay relates to HL-60 cells differentiated into neutrophil cells. The experiment in a line: ROS production induced by PMA in HL-60 cells differentiated into neutrophil cells. It counts as cell-based. The settings on record: Homo sapiens, 0.5 h; differentiated HL-60 cells, compounds 0.5 uM (0.5 mM in the source) for 30 minutes, 200 nM PMA, L-012 luminescence. An excerpt: In order to confirm the effect of the compounds of Synthetic examples on ROS production from fibroblasts and specific substrate cells, ROS production was induced by stimulation of PMA (phorbol 12-myristate 13-acetate), TGF-β1, palmitate or high concentration-glucose, or the like, in HL-60 cells differentiated into neutrophil cells by DMSO treatment, NHLF (normal human lung fibroblast, Lonza), LX-2 (human hepatic stellate cells, Sigma), ARPE19 (human retinal pigment epithelial cell, ATCC), and KEL-FIB (Keloid fibroblast, ATCC) cells, and under this condition, the inhibitory effect of ROS production of the compounds of Synthetic Examples was observed.
HL-60 cells (human leukemia cells, ATCC) were suspended in a medium containing 1.25% DMSO (RPMI+10% FBS) and cultured under the condition of 5% CO2, 37° C. for 6 days, thereby inducing differentiation into neutrophil cells. […] Then, to each well comprising the cells and drug, 200 nM PMA was treated to induce ROS production, and such ROS production was measured by observing the luminescence level of each well using 100 μM L-012.
For the compound `CN1CCN(C2CCc3nn(-c4ccc(Cl)cc4)c(O)c3C2)CC1` (stereo not drawn) [Compound 94, 2-(4-Chlorophenyl)-5-(4-methylpiperazin-1-yl)-4,5,6,7-tetrahydro-2H-indazol-3-ol], the inhibition at 0.5 µM was > 70%.

For `CN1CCN(C2CCc3nn(-c4ccc(C(F)(F)F)cc4)c(O)c3C2)CC1` (stereo not drawn) [Compound 95, 5-(4-Methylpiperazin-1-yl)-2-(4-(trifluoromethyl)phenyl)-4,5,6,7-tetrahydro-2H-indazol-3-ol], the inhibition at 0.5 µM lay within 50 to 70%. The result for `Oc1c2c(nn1-c1ccccn1)CCC(N1CCCC1)C2` (stereo not drawn) [Compound 96, 2-(Pyridin-2-yl)-5-(pyrrolidin-1-yl)-4,5,6,7-tetrahydro-2H-indazol-3-ol] reads 50 to 70%; that for `C=CC(=O)N1CCN(C2CCc3nn(-c4ccccn4)c(O)c3C2)CC1` (stereo not drawn) [Compound 97, 1-(4-(3-Hydroxy-2-(pyridin-2-yl)-4,5,6,7-tetrahydro-2H-indazol-5-yl)piperazin-1-yl)prop-2-en-1-one], 50 to 70%; that for `CN(C)C/C=C/C(=O)N1CCN(C2CCc3nn(-c4ccccn4)c(O)c3C2)CC1` (stereo not drawn) [Compound 98, (E)-4-(dimethylamino)-1-(4-(3-hydroxy-2-(pyridin-2-yl)-4,5,6,7-tetrahydro-2H-indazol-5-yl)piperazin-1-yl)but-2-en-1-one], 50 to 70%. In turn, `CN(C)C/C=C/C(=O)N(C)C1CCc2nn(-c3ccccn3)c(O)c2C1` (stereo not drawn) [Compound 99, (E)-4-(dimethylamino)-N-(3-hydroxy-2-(pyridin-2-yl)-4,5,6,7-tetrahydro-2H-indazol-5-yl)-N-methylbut-2-enamide] registered an inhibition at 0.5 µM of 50 to 70%. `CCCN1CCN(C2CCc3nn(-c4ccccn4)c(O)c3C2)CC1` (stereo not drawn) [Compound 100, 5-(4-Propylpiperazin-1-yl)-2-(pyridin-2-yl)-4,5,6,7-tetrahydro-2H-indazol-3-ol] showed an inhibition at 0.5 µM of 50 to 70%. In the case of `CN1CCN(C2CCc3nn(-c4ccc(F)cc4)c(O)c3C2)CC1` (stereo not drawn) [Compound 102, 2-(4-Fluorophenyl)-5-(4-methylpiperazin-1-yl)-4,5,6,7-tetrahydro-2H-indazol-3-ol], the inhibition at 0.5 µM was > 70%.

Regarding `CN1CCN(C2CCc3nn(-c4ccc(C#N)cc4)c(O)c3C2)CC1` (stereo not drawn) [Compound 103, 4-(3-Hydroxy-5-(4-methylpiperazin-1-yl)-4,5,6,7-tetrahydro-2H-indazol-2-yl)benzonitrile], the inhibition at 0.5 µM was > 70%. The figure for `Oc1c2c(nn1-c1ccccn1)CCC(N1CCN(CCc3ccccc3)CC1)C2` (stereo not drawn) [Compound 104, 5-(4-Penethylpiperazin-1-yl)-2-(pyridin-2-yl)-4,5,6,7-tetrahydro-2H-indazol-3-ol] is 50 to 70%; for `Oc1c2c(nn1-c1ccccn1)CCC(N1CCN(Cc3ccccc3)CC1)C2` (stereo not drawn) [Compound 105, 5-(4-Benzylpiperazin-1-yl)-2-(pyridin-2-yl)-4,5,6,7-tetrahydro-2H-indazol-3-ol] it is > 70%. The result for `Oc1c2c(nn1-c1ccccn1)CCC(N1CCN(CC3CCCCC3)CC1)C2` (stereo not drawn) [Compound 106, 5-(4-(Cyclohexylmethyl)piperazin-1-yl)-2-(pyridin-2-yl)-4,5,6,7-tetrahydro-2H-indazol-3-ol] reads > 70%.

Turning to `Oc1c2c(nn1-c1ccccn1)CCC(N1CCN(CCCc3ccccc3)CC1)C2` (stereo not drawn) [Compound 107, 5-(4-(3-Phenylpropyl)piperazin-1-yl)-2-(pyridin-2-yl)-4,5,6,7-tetrahydro-2H-indazol-3-ol], the inhibition at 0.5 µM was > 70%. In the case of `CN1CCN(C2CCc3nn(-c4ncccn4)c(O)c3C2)CC1` (stereo not drawn) [Compound 108, 5-(4-Methylpiperazin-1-yl)-2-(pyrimidin-2-yl)-4,5,6,7-tetrahydro-2H-indazol-3-ol], the inhibition at 0.5 µM is > 70%. The result for `Cc1ccc(N2CCN(C3CCc4nn(-c5ccccn5)c(O)c4C3)CC2)cc1` (stereo not drawn) [Compound 126, 2-(Pyridin-2-yl)-5-(4-(p-tolyl)piperazin-1-yl)-4,5,6,7-tetrahydro-2H-indazol-3-ol] reads > 70%.
